The supplement of paper PMC11208160
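Note: IS621 bridge recombinase in Escherichia coli cells against a fixed T5 target plasmid.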

Experiment: recombinant UMI read abundance after kanamycin selection (control-corrected) (log10(CPM+1)); higher = more efficient recombination; extreme values may be limits of the assay; sequences stand for … in AGTGCAGAGAAAATCGGCCAGTTTTCTCTGCCTGCAGTCCGCATGCCGTGGGACCCCTTGGGTTCTAACCTGTTGCCTAGATTTATGCAGCGGACTGCCTTTCTCCCAAAGTGATAAACCGG…AGGTTGGTTTCACT; site = the 11-nt donor
Procedure, shortened: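 Under IPTG (0.07 mM) plus kanamycin, or without selection, Escherichia coli carrying a UMI-tagged donor and donor-binding-loop pair library and a target plasmid for the IS621 bridge recombinase were plated in two replicates. Recombinant UMIs were PCR-amplified across the donor–target junction and sequenced. Counts were converted to CPM, averaged over replicates, scaled by control-derived factors and reported as log10(CPM+1).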
In the case of “CGGGAACCATGGACCGGTTTTCCCGGTAATCCGTATTTGAG (site CGGGAACCTAT)”, the “recombinant UMI read abundance (log10)” value is reported as 0. In the case of “CGGGAACCATGGACCGGTTTTCCCGGTAATCCGTATTTGAG (site CGGGAACCTCT)”, the “recombinant UMI read abundance (log10)” value is reported as 0.013. For “CGGGAACCATGGACCGGTTTTCCCGGTAATCCGTATTTGAG (site CGGGAACCTGT)”, the “recombinant UMI read abundance (log10)” value was 0. For “CGGGAACCATGGACCGGTTTTCCCGGTAATCCGTATTTGAG (site CGGGAACCTTT)”, the “recombinant UMI read abundance (log10)” value was 0. In the case of “CGGGAACCATGGACCGGTTTTCCCGGTAATCCGTATTTGCG (site CGGGAACCTCG)”, the “recombinant UMI read abundance (log10)” value is reported as 0. With “CGGGAACCATGGACCGGTTTTCCCGGTAATCCGTATTTGTT (site CGGAATCCTAA)” the “recombinant UMI read abundance (log10)” value was 0. In the case of “CGGGAACCATGGACCGGTTTTCCCGGTAATCCGTATTTGTT (site CGGGAACCTAA)”, the “recombinant UMI read abundance (log10)” value is reported as 0.47. With “CGGGAACCATGGACCGGTTTTCCCGGTAATCCGTATTTGTT (site CGGGAACCTAC)” the “recombinant UMI read abundance (log10)” value was 0. For “CGGGAACCATGGACCGGTTTTCCCGGTAATCCGTATTTGTT (site CGGGAACCTAG)”, the “recombinant UMI read abundance (log10)” value was 0. With “CGGGAACCATGGACCGGTTTTCCCGGTAATCCGTATTTGTT (site CGGGAACCTAT)” the “recombinant UMI read abundance (log10)” value was 0.0108. For “CGGGAGACATGGACCGGTTTTCCCGGTAATCCGTATTTGCC (site CGGGAGACTGG)”, the “recombinant UMI read abundance (log10)” value was 1.58. With “CGGGAGACATGGACCGGTTTTCCCGGTAATCCGTATTTGCC (site CGGGAGCCTGG)” the “recombinant UMI read abundance (log10)” value was 0. With “CGGGAGACATGGACCGGTTTTCCCGGTAATCCGTATTTGCC (site CGGGAGGCTGG)” the “recombinant UMI read abundance (log10)” value was 1.69. With “CGGGAGACATGGACCGGTTTTCCCGGTAATCCGTATTTGCC (site CGGGAGTCTGG)” the “recombinant UMI read abundance (log10)” value was 0.663. In the case of “CGGGAGTCATGGACCGGTTTTCCCGGTAATCCGTATTTGCG (site CGGGAGTCTAG)”, the “recombinant UMI read abundance (log10)” value is reported as 1.03. In the case of “CGGGAGTCATGGACCGGTTTTCCCGGTAATCCGTATTTGCG (site CGGGAGTCTCG)”, the “recombinant UMI read abundance (log10)” value is reported as 2.8. In the case of “CGGGAGTCATGGACCGGTTTTCCCGGTAATCCGTATTTGCG (site CGGGAGTCTGG)”, the “recombinant UMI read abundance (log10)” value is reported as 0. For “CGGGAGTCATGGACCGGTTTTCCCGGTAATCCGTATTTGCG (site CGGGAGTCTTG)”, the “recombinant UMI read abundance (log10)” value was 0.888. With “CGGGAGTCATGGACCGGTTTTCCCGGTAATCCGTATTTGGC (site CGGGAGTCTGA)” the “recombinant UMI read abundance (log10)” value was 1.59. In the case of “CGGGAGTCATGGACCGGTTTTCCCGGTAATCCGTATTTGGC (site CGGGAGTCTGC)”, the “recombinant UMI read abundance (log10)” value is reported as 2.76. In the case of “CGGGAGTCATGGACCGGTTTTCCCGGTAATCCGTATTTGGC (site CGGGAGTCTGG)”, the “recombinant UMI read abundance (log10)” value is reported as 0.911. With “CGGGAGTCATGGACCGGTTTTCCCGGTAATCCGTATTTGGC (site CGGGAGTCTGT)” the “recombinant UMI read abundance (log10)” value was 1.96. With “CGGGATCCATGGACCGGTTTTCCCGGTAATCCGTATTTGCT (site CGGAATCCTAA)” the “recombinant UMI read abundance (log10)” value was 0.0224. For “CGGGATCCATGGACCGGTTTTCCCGGTAATCCGTATTTGCT (site CGGGATCCTAG)”, the “recombinant UMI read abundance (log10)” value was 0. For “CGGGCACCATGGACCGGTTTTCCCGGTAATCCGTATTTGCA (site AGGGCACCTTG)”, the “recombinant UMI read abundance (log10)” value was 0.0117. In the case of “CGGGCACCATGGACCGGTTTTCCCGGTAATCCGTATTTGCA (site CGGGCACCTTG)”, the “recombinant UMI read abundance (log10)” value is reported as 0. In the case of “CGGGCACCATGGACCGGTTTTCCCGGTAATCCGTATTTGCA (site GGGGCACCTTG)”, the “recombinant UMI read abundance (log10)” value is reported as 0.00963. With “CGGGCACCATGGACCGGTTTTCCCGGTAATCCGTATTTGCA (site TGGGCACCTTG)” the “recombinant UMI read abundance (log10)” value was 0. With “CGGGGACCATGGACCGGTTTTCCCGGTAATCCGTATTTGAT (site CGGGAACCTAT)” the “recombinant UMI read abundance (log10)” value was 0. For “CGGGGACCATGGACCGGTTTTCCCGGTAATCCGTATTTGAT (site CGGGCACCTAT)”, the “recombinant UMI read abundance (log10)” value was 0.00825. For “CGGGGACCATGGACCGGTTTTCCCGGTAATCCGTATTTGAT (site CGGGGACCTAT)”, the “recombinant UMI read abundance (log10)” value was 0. In the case of “CGGGGACCATGGACCGGTTTTCCCGGTAATCCGTATTTGAT (site CGGGTACCTAT)”, the “recombinant UMI read abundance (log10)” value is reported as 0. For “CGGGGACCATGGACCGGTTTTCCCGGTAATCCGTATTTGGG (site CGAGGACCTCC)”, the “recombinant UMI read abundance (log10)” value was 0.0137. For “CGGGGACCATGGACCGGTTTTCCCGGTAATCCGTATTTGGG (site CGCGGACCTCC)”, the “recombinant UMI read abundance (log10)” value was 0.0363. In the case of “CGGGGACCATGGACCGGTTTTCCCGGTAATCCGTATTTGGG (site CGGGGACCTCC)”, the “recombinant UMI read abundance (log10)” value is reported as 0.0134. With “CGGGGACCATGGACCGGTTTTCCCGGTAATCCGTATTTGGG (site CGTGGACCTCC)” the “recombinant UMI read abundance (log10)” value was 0.00366. In the case of “CGGGGCGCATGGACCGGTTTTCCCGGTAATCCGTATTTGAA (site CGGGGCGCTTT)”, the “recombinant UMI read abundance (log10)” value is reported as 1.26. For “CGGGGCGCATGGACCGGTTTTCCCGGTAATCCGTATTTGGC (site CGGGGCGCTGC)”, the “recombinant UMI read abundance (log10)” value was 3.06. In the case of “CGGGGCTCATGGACCGGTTTTCCCGGTAATCCGTATTTGCA (site CGGGGCTCTTG)”, the “recombinant UMI read abundance (log10)” value is reported as 2.79. For “CGGGGTCCATGGACCGGTTTTCCCGGTAATCCGTATTTGAT (site CGGGGTCCTAT)”, the “recombinant UMI read abundance (log10)” value was 0. With “CGGGTTGCATGGACCGGTTTTCCCGGTAATCCGTATTTGGT (site CGGGTTGCTAC)” the “recombinant UMI read abundance (log10)” value was 1.77. In the case of “CGGTACCCATGGACCGGTTTTCCCGGTAATCCGTATTTGAG (site CGGTACCCTCT)”, the “recombinant UMI read abundance (log10)” value is reported as 0.188. With “CGGTCACCATGGACCGGTTTTCCCGGTAATCCGTATTTGTA (site CGGTCACCTTA)” the “recombinant UMI read abundance (log10)” value was 0. For “CGGTCATCATGGACCGGTTTTCCCGGTAATCCGTATTTGCA (site CGATCATCTAG)”, the “recombinant UMI read abundance (log10)” value was 0.01. With “CGGTCATCATGGACCGGTTTTCCCGGTAATCCGTATTTGCA (site CGGTCATCTTG)” the “recombinant UMI read abundance (log10)” value was 0.39. In the case of “CGGTCCTCATGGACCGGTTTTCCCGGTAATCCGTATTTGCA (site CGGTCCTCTTG)”, the “recombinant UMI read abundance (log10)” value is reported as 0. With “CGGTCTGCATGGACCGGTTTTCCCGGTAATCCGTATTTGAG (site CGGTCTGCTCT)” the “recombinant UMI read abundance (log10)” value was 0.251. For “CGGTTGCCATGGACCGGTTTTCCCGGTAATCCGTATTTGGC (site CGGTTGCCTGC)”, the “recombinant UMI read abundance (log10)” value was 0. In the case of “CGTAATCCATGGACCGGTTTTCCCGGTAATCCGTATTTGAT (site CGGAATCCTAA)”, the “recombinant UMI read abundance (log10)” value is reported as 0. For “CGTAATCCATGGACCGGTTTTCCCGGTAATCCGTATTTGAT (site CGTAATCCTAT)”, the “recombinant UMI read abundance (log10)” value was 0.697. With “CGTAATCCATGGACCGGTTTTCCCGGTAATCCGTATTTGTC (site CGGAATCCTAA)” the “recombinant UMI read abundance (log10)” value was 0. In the case of “CGTAATCCATGGACCGGTTTTCCCGGTAATCCGTATTTGTC (site CGTAATCCTGA)”, the “recombinant UMI read abundance (log10)” value is reported as 1.47. For “CGTACACCATGGACCGGTTTTCCCGGTAATCCGTATTTGAC (site AGTACACCTGT)”, the “recombinant UMI read abundance (log10)” value was 0. For “CGTACACCATGGACCGGTTTTCCCGGTAATCCGTATTTGAC (site CGTACACCTGT)”, the “recombinant UMI read abundance (log10)” value was 0. With “CGTACACCATGGACCGGTTTTCCCGGTAATCCGTATTTGAC (site GGTACACCTGT)” the “recombinant UMI read abundance (log10)” value was 0. For “CGTACACCATGGACCGGTTTTCCCGGTAATCCGTATTTGAC (site TGTACACCTGT)”, the “recombinant UMI read abundance (log10)” value was 0. In the case of “CGTACCGCATGGACCGGTTTTCCCGGTAATCCGTATTTGTC (site CGTACCGCTGA)”, the “recombinant UMI read abundance (log10)” value is reported as 2.78. With “CGTAGATCATGGACCGGTTTTCCCGGTAATCCGTATTTGCA (site CGTAGATCTTG)” the “recombinant UMI read abundance (log10)” value was 2.44. For “CGTAGTCCATGGACCGGTTTTCCCGGTAATCCGTATTTGTT (site CGGAATCCTAA)”, the “recombinant UMI read abundance (log10)” value was 0. With “CGTAGTCCATGGACCGGTTTTCCCGGTAATCCGTATTTGTT (site CGTAGTCCTAA)” the “recombinant UMI read abundance (log10)” value was 0.247. With “CGTATACCATGGACCGGTTTTCCCGGTAATCCGTATTTGAA (site CGTATACCTTT)” the “recombinant UMI read abundance (log10)” value was 0.0161. With “CGTATGGCATGGACCGGTTTTCCCGGTAATCCGTATTTGTG (site CGTATGGCTCA)” the “recombinant UMI read abundance (log10)” value was 1.33. With “CGTATGTCATGGACCGGTTTTCCCGGTAATCCGTATTTGGT (site CGTATGTCTAC)” the “recombinant UMI read abundance (log10)” value was 1.59. For “CGTATTCCATGGACCGGTTTTCCCGGTAATCCGTATTTGTG (site CGTATTCCTCA)”, the “recombinant UMI read abundance (log10)” value was 0.0112. With “CGTCACTCATGGACCGGTTTTCCCGGTAATCCGTATTTGGC (site CGTCACTCTGC)” the “recombinant UMI read abundance (log10)” value was 2.8. With “CGTCCAACATGGACCGGTTTTCCCGGTAATCCGTATTTGTA (site AGTCCAACTTA)” the “recombinant UMI read abundance (log10)” value was 0.00336. For “CGTCCAACATGGACCGGTTTTCCCGGTAATCCGTATTTGTA (site CGTCCAACTTA)”, the “recombinant UMI read abundance (log10)” value was 1.61. In the case of “CGTCCAACATGGACCGGTTTTCCCGGTAATCCGTATTTGTA (site GGTCCAACTTA)”, the “recombinant UMI read abundance (log10)” value is reported as 0.0127. In the case of “CGTCCAACATGGACCGGTTTTCCCGGTAATCCGTATTTGTA (site TGTCCAACTTA)”, the “recombinant UMI read abundance (log10)” value is reported as 0.0409. In the case of “CGTCTAGCATGGACCGGTTTTCCCGGTAATCCGTATTTGGC (site CGTCTAGCTGC)”, the “recombinant UMI read abundance (log10)” value is reported as 2.07. In the case of “CGTCTCACATGGACCGGTTTTCCCGGTAATCCGTATTTGGT (site CGTCTCACTAC)”, the “recombinant UMI read abundance (log10)” value is reported as 1.62. With “CGTCTTACATGGACCGGTTTTCCCGGTAATCCGTATTTGTA (site CGTCTTACTTA)” the “recombinant UMI read abundance (log10)” value was 0.00853. For “CGTGGAACATGGACCGGTTTTCCCGGTAATCCGTATTTGCT (site CGTGGAACTAA)”, the “recombinant UMI read abundance (log10)” value was 0.202. With “CGTGGAACATGGACCGGTTTTCCCGGTAATCCGTATTTGCT (site CGTGGAACTAC)” the “recombinant UMI read abundance (log10)” value was 0.00778. For “CGTGGAACATGGACCGGTTTTCCCGGTAATCCGTATTTGCT (site CGTGGAACTAG)”, the “recombinant UMI read abundance (log10)” value was 2.18.
